One data set deals with NDR2. The data set can be described thus: Western blot of NDR2 variants with phosphorylation site specific antibodies. It counts as cell-based, human. The text has this:
This was described above for the corresponding mutants of NDR1.

In a further data set the test system is HA-NDR2. Briefly: HA-NDR2 protein kinase activity after cell treatment with okadaic acid or solvent. It counts as cell-based, human. Conditions: for activation of NDR2 mutant by OA: cell treatment with OA; for basal kinase activity of NDR2 mutant: solvent alone, compared with HA-NDR2-WT. The method, then: All other procedures (including bacterial expression, kinase assays, immunodetection and mass spectrometry) were carried out essentially as described in the Methodology section above.
To further examine this NDR2 mutants were created in which either Ser-282 or Thr-442 were replaced by an alanine. Additionally an in vitro phosphorylation site mutant T75A essentially as described above, and a kinase dead mutant K119A was created for Ndr2. The protein kinase activity of each of these mutants was measured following cell treatment with okadaic acid (OA) or solvent alone. HA-NDR2-WT was potently stimulated (˜10-fold) by OA.

This is an account of results in patent US8008452B2, “Phosphorylated Ndr kinase” (Novartis Forschungesstiftung, Zweigniederlassung Friedrich …, priority 2002, dated 2011).

In the case of K119A: NDR2 kinase dead mutant K119A, in the data set with NDR2, the “phosphorylation of NDR2 on Ser282” value was “not phosphorylated on S282” and the “phosphorylation of NDR2 on T442 upon OA treatment” value is on record as “becomes phosphorylated upon OA treatment”. For the same substance, in the data set with HA-NDR2, the “activation of NDR2 mutant by OA” value was “didn't show any activation by OA” and the “basal kinase activity of NDR2 mutant” value is recorded as “nearly undetectable levels”.

“NDR2 wt: human NDR2 wild type (SEQ ID NO:3), HA-tagged”: in the data set on NDR2, the “increase of Ser282 phosphorylation after OA treatment” value is reported as “increased after OA treatment”, the “phosphorylation of NDR2 on Ser282” value is recorded as “becomes phosphorylated on Ser282” and the “phosphorylation of NDR2 on T442 upon OA treatment” value is on record as “becomes phosphorylated upon OA treatment”.

“S282A: NDR2 mutant, Ser-282 replaced by alanine”: the “phosphorylation of NDR2 on T442 upon OA treatment” value in the data set on NDR2 is “becomes phosphorylated upon OA treatment”. Further, in the data set with HA-NDR2, the “activation of NDR2 mutant by OA” value is “still activated” and the “basal kinase activity of NDR2 mutant” value was “markedly reduced basal activity”.

On to “T75A: NDR2 in vitro phosphorylation site mutant T75A”, for which, in the data set on NDR2, the “phosphorylation of NDR2 on Ser282” value is listed as “becomes phosphorylated on Ser282” and the “phosphorylation of NDR2 on T442 upon OA treatment” value was “becomes phosphorylated upon OA treatment”. Further, in the data set with HA-NDR2, the “activation of NDR2 mutant by OA” value is reported as “still activated” and the “basal kinase activity of NDR2 mutant” value was “markedly reduced basal activity”.

As to “T442A: NDR2 mutant, Thr-442 replaced by alanine”, in the data set on NDR2, the “increase of Ser282 phosphorylation after OA treatment” value was “increased after OA treatment” and the “phosphorylation of NDR2 on Ser282” value was “becomes phosphorylated on Ser282”. Moreover, in the data set on HA-NDR2, the “activation of NDR2 mutant by OA” value was “still activated” and the “basal kinase activity of NDR2 mutant” value is “markedly reduced basal activity”.
